From patent US9617311B2, “Use of PEDF-derived polypeptides for promoting stem cells proliferation and wound healing” (Mackay Memorial Hospital, priority 2011, dated 2017) come the findings set out here.

For assay [1], the system named is hair follicle stem cells (HFSCs). Briefly: In vitro HFSC proliferation, BrdU pulse-labeling with Lgr6 immunostaining. In kind it is cell-based, Human. Conditions: 50 nM peptide or 4.5 nM PEDF in medium; BrdU 2 hours; control 31.9±5.6%. On the procedure:
FIG. 5A provides immunofluorescence microscopy photographs and FIG. 5B is a histogram, and together, they illustrate the in vitro proliferation of HFSCs from treatment groups according to one example of the present disclosure. HFSC proliferation was determined by BrdU labeling for 2 hours. HFSCs (Lgr6, green) and BrdU (red) were detected by immunofluorescence microscopy (original magnification, ×1000). Twenty randomly selected fields in each group were photographed, and the percentage of BrdU and Lgr6-double positive cells (pale pink) per total Lgr6-positive cells was calculated. *P<0.001 versus untreated cells.
Human hair follicles were collected from hairs of healthy donors. The follicles were dissected with tweezers under microscope and most of adipose and connective tissue was removed. The bulge region of hair follicle under the sebaceous gland was cut and then bulge fragments (including central isthmus) were transferred into a 35-mm dish containing 1 ml of collagenase A (1 mg/ml; Roche) and incubated for 1.5 hours at 37° C. to digest the collagen capsule. Subsequently, the bulge fragments were transferred into a fresh cell culture dish containing dispase II (2.4 U/ml)/0.05% trypsin and further incubated for 1.5 hours at 37° C. to obtain a single cell suspension.
After mechanical dissection and enzymatic digestion, the suspended bulge cells isolated from five bulge fragments were seeded into a well of 12-well culture plate and incubated with the basal medium for 5 days to facilitate cell adhesion. The basal medium contains four parts Gibco calcium-free Dulbecco's modified Eagle's medium (DMEM) and one part Ham's F12 medium (calcium concentration reached about 0.25 mM) and supplemented with 10% FBS, 10 ng/ml human epidermal growth factor, 500 mg/I L-glutamine, 0.2% bovine pituitary extract, […] hydrocortisone, 1% ITSE as well as antibiotic-antimicotic solutions. Cultivation method was similar to that of Blazejewska et al. (Stem Cells 2009; 27:642). After 5 days of incubation, cells were cultured in the serum-free basal medium or basal medium containing 4.5 nM PEDF, 50 nM 29-mer, or 50 nM 20-mer, until near confluence (about 2 weeks; passage 0). The medium was changed every 2 to 3 days. The bulge cells were co-cultured with 3T3 fibroblast feeder cells. For passage, near-confluent cells were harvested by enzymatic treatment (i.e., 0.25% trypsin) for 5 min at 37° C. Approximately 1×10^5 human bulge cells were transferred to a new dish and allowed to grow for 14 days to near confluence (passage 1). […]

Assay [2] relates to LSCs in the limbus. The assay is described as follows: Limbal epithelium thickness and ΔNp63α-positive LSC level on day 5 post corneal wounding. Conditions: day 5 post-wounding; for thickness of the limbus / limbal epithelia: compared with normal unwounded eye; for levels of ΔNp63α-positive LSCs in limbus: control ointment 38.9±2.8%, normal unwounded eye 74.8±6.3%. In kind it is in vivo, C57BL/6 mice. From the text: FIG. 4A provides histologic photographs (left panels, Hematoxylin and Eosin (H&E) staining, magnification, ×400), immunofluorescence microscopy photographs (middle panels, magnification, ×1000), and merged photographs (right panels); together, they illustrate layers of stratified limbal epithelium of mice at day 5 post-corneal injury according to the previous example of the present disclosure. […] Normal indicates uninjured eye. Cornea of normal eye that has no ΔNp63α-positive cell acted as ΔNp63α negative immunostaining control. FIG. 4B is a histogram illustrating levels of ΔNp63α-positive cells at limbus. Results of immunofluorescence were evaluated from 6 sections per mouse cornea, and 6 mice at each treatment. A labeling index was computed as the number of labeled cells divided by the total number of cells observed by a Hoechst 33258 fluorescent nuclear stain. P<0.005 versus control eye.
De-paraffinized tissue sections or 4% paraformaldehyde-fixed LSCs were blocked with 10% goat serum and 5% BSA in PBST (PBS containing 0.1% Tween-20) for 1 hour. Staining was done using primary antibodies against ΔNp63α (1:150 dilution), BrdU (1:250 dilution), and keratin-3 (1:250 dilution) at 37° C. for 2 hours, followed by incubation with the appropriate rhodamine- or FITC-conjugated donkey IgG (1:500 dilution) for 1 hour at RT. Nuclei were identified by counterstaining with Hoechst 33258 for 7 minutes. Images were captured using a Zeiss epifluorescence microscope with a CCD camera and photographs were taken by using the Axiovert software.
(§1) The experiments were performed using eight-week-old female C57BL/6 mice, and the procedures were approved by the Mackay Memorial Hospital Review Board for animal investigation. Animals were anesthetized by an intraperitoneal injection of a mixture of zoletil (6 mg/kg) and xylazine (3 mg/kg). One filter paper (0.9 mm diameter) soaked with 20% ethanol was placed on the central cornea of right eye for one minute and then irrigated extensively with PBS. Subsequently, mechanical epithelial scrape was performed using a punch under a dissection microscope to create a circular injury (2 mm diameter) at the entire corneal region of the mouse eye without encroaching the corneal stroma, limbus or conjunctiva.
(§2) Each synthetic peptide (the 39-mer, 34-mer, 29-mer, 25-mer, 20-mer, 18-mer, Mo 29-mer or Mo 20-mer) was reconstituted in DMSO as stock (5 mM) and mixed with TOBREX® eye ointment (Alcon; containing 0.3% Tobramycin and 0.5% Chlorobutanol) to a concentration 50 μM. In each of the treatment group (n=6-10), the right eye was treated with 20 μl eye ointment containing the synthetic peptide once a day after the scrape injury. In the control group (n=20), right eye was treated with 20 μl of eye ointment mixed with vehicle DMSO. Wound size was determined by staining with topical fluorescein (Fluor-I-Strip, Ayerst Laboratories, Philadelphia, Pa.) and photographed with a digital camera. The area of defect was quantified from the photographs using a computer-assisted image analyzer (Adobe Photoshop CS3 10.0) and was calculated as the percentage of residual epithelial defect at each time point/initial wound area.
On average, the levels of ΔNp63α-positive LSCs in limbus of normal unwounded eye is 74.8±6.3%; whereas the levels of ΔNp63α-positive LSCs in corneal wounded eyes treated with control, 29-mer, 20-mer, 18-mer and Mo 20-mer ointment were 38.9±2.8%, 77.0±4.1%, 73.1±8.6%, 39.4±2.6%, and 76.3±6.2% respectively (FIG. 4B). Taken together, 29-mer or 20-mer treatment can activate LSCs in vivo coincidently with more prominent corneal re-epithelialization than corneal regeneration by native progress.

The test system of assay [3] is corneal wound. Briefly: Corneal wound healing in mice, fluorescein staining. The assay is classed as in vivo, C57BL/6 mice. Conditions: for corneal re-epithelialization after 48 hours: 20 μl eye ointment with 50 μM peptide once a day, 2 mm wound; for residual epithelial defect, percentage of the original wound: 50 μM peptide eye ointment once a day. The protocol: as §1, §2
To investigate the effect of PEDF-derived short peptides on corneal wound healing in mice, corneal wound was created by a circular punch (2 mm diameter), then control eye-ointment or eye-ointment containing the short synthetic PEDF peptide(s) of this invention was applied to the wounded eye, and wound healing was subsequently evaluated by fluorescein staining. No significant differences in the size of the initial abrasion were noted between synthetic PEDF peptide-treated and control mice.

As to EQRTESIIHRALYYDLIS [18-mer], the “percentage of BrdU and Lgr6-double positive cells per total Lgr6-positive cells” value (from here on “percentage … per total Lgr6-positive cells”) in assay [1] is recorded as 30.1±6.3%. Besides, in assay [2], the “thickness of the limbus / limbal epithelia” value is “thinner” and the “levels of ΔNp63α-positive LSCs in limbus” value was determined as 39.4±2.6%. For the same sequence, the “corneal re-epithelialization after 48 hours” value (“corneal re-epithelialization” for short) in assay [3] is “incompletely healed wounds”.

With “SLGAEHRTESVIHRALYYDL [Mo 20-mer, synthetic peptide derived from mouse PEDF]”, in assay [2], the “thickness of the limbus / limbal epithelia” value was “returned to full-thickness of stratified layers”. Moreover, the “levels of ΔNp63α-positive LSCs in limbus” value in assay [2] was 76.3±6.2%. The “corneal re-epithelialization” value in assay [3] was “complete corneal re-epithelialization”. For the same sequence, the “residual epithelial defect, percentage of the original wound” value (shortened to “residual epithelial defect, percentage”) in assay [3] (24 hours, control 84.9±5.1%) was 43.9±7.6%; in assay [3] (48 hours, control 39.5±3.1%), 6.2±3.5%.

Consider “SLGAEHRTESVIHRALYYDLITNPDIHST [Mo 29-mer, synthetic peptide derived from mouse PEDF]”, for which the “corneal re-epithelialization” value in assay [3] was “complete corneal re-epithelialization”. In addition, the “residual epithelial defect, percentage” value in assay [3] (24 hours, control 84.9±5.1%) came out at 33.8±5.2%; in assay [3] (48 hours, control 39.5±3.1%) it was 4.6±2.3%.

In the case of “SLGAEQRTESIIHRALYYDL [20-mer, synthetic peptide identical to residues 11-30 of the 39-mer]”, in assay [1], the “percentage … per total Lgr6-positive cells” value is on record as 79.5±2.6%. Also, the “thickness of the limbus / limbal epithelia” value in assay [2] was “returned to full-thickness of stratified layers”. Moreover, the “levels of ΔNp63α-positive LSCs in limbus” value in assay [2] was 73.1±8.6%. The “corneal re-epithelialization” value in assay [3] is on record as “complete corneal re-epithelialization”. The “residual epithelial defect, percentage” value in assay [3] (24 hours, control 84.9±5.1%) is 42.2±4.3%; in assay [3] (48 hours, control 39.5±3.1%) it was 5.0±3.7%.

As to “SLGAEQRTESIIHRALYYDLISSPDIHGT [29-mer, short synthetic PEDF peptide derived from the 39-mer]”, the “percentage … per total Lgr6-positive cells” value in assay [1] came out at 86.2±3.9%. Also, the “thickness of the limbus / limbal epithelia” value in assay [2] is “returned to full-thickness of stratified layers”. For the same sequence, the “levels of ΔNp63α-positive LSCs in limbus” value in assay [2] was 77.0±4.1%. The “corneal re-epithelialization” value in assay [3] is reported as “complete corneal re-epithelialization”. The “residual epithelial defect, percentage” value in assay [3] (24 hours, control 84.9±5.1%) is reported as 36.5±6.4%; in assay [3] (48 hours, control 39.5±3.1%) it was 3.7±2.9%.
